What was measured:
[1] = target: T1, hDGKalpha(1-735)-N-His (DGKA) (Homo sapiens, UniProt P23743); assay: In vitro DGK inhibition assay (ADP-Glo, in house), DGK alpha; format: biochemical; conditions: isomer A; 4 nM DGK α, 25 μM ATP, 125 μM DLG in liposomes, 1 hour reaction; read-out: DGKalpha ADP Glo assay IC50
T1 construct: hDGKalpha(1-735)-N-His; His (N)
Procedure: (§1) DGK α and ζ kinase use ATP to phosphorylate the substrate 1,2-dilauroyl-sn-glycerol (DLG, incorporated in the liposomes). ATP is converted to ADP as a result of this enzymatic reaction.
(§2) After the kinase reaction, an ATP-depletion reagent is added to terminate the kinase reaction and deplete any remaining ATP, leaving only ADP. Second, a detection reagent is added to simultaneously convert ADP to ATP and allow the newly synthesized ATP to be converted to light using a coupled luciferase/luciferin reaction.
(§3) Full length DGKA and Z were expressed in Sf21 insect cells by infecting the cells with the baculovirus stock at MOI of 2. Purification of both enzymes was performed as previously described by Takahashi et al., PeerJ, 2018 (Takahashi, D.; Sakane, F. Expression and purification of human diacylglycerolkinase alpha from baculovirus-infected insect cells for structural studies. PeerJ2018, 6, No. e5449).
(§4) A concentrated liposome solution was prepared in assay buffer without DTT and BSA: 2 mM of DLG in 21 mM of total liposome (2 mM DLG/8 mM PS/11 mM PC). The reaction mixtures contain the assay buffer with a final DLG concentration of 125 μM ATP concentrations of 25 μM (for DGKA assay) or 50 μM (for DGKZ assay). The reactions were started by addition of DGK α and ζ kinases at 4 nM and 2 nM final concentrations, respectively. After 1 hour reaction, the amount of ADP formed was detected with the ADP-Glo kinase assay (Promega) according to the manufacturer instructions. Compounds were added in 11I-points dose response, starting at 10 mM, 1:3 dilutions, with a final DMSO concentration of […]. The multidrop combi was used as a liquid handler and luminescence was read with 0.5 s by the envision reader (PE).

[2] = target: T2, hDGKzeta(1-928)-N-His (DGKZ) (Homo sapiens, UniProt Q13574); assay: In vitro DGK inhibition assay (ADP-Glo, in house), DGK zeta; format: biochemical; conditions: isomer A; 2 nM DGK ζ, 50 μM ATP, 125 μM DLG in liposomes, 1 hour reaction; read-out: DGKzeta ADP Glo assay IC50
T2 construct: hDGKzeta(1-928)-N-His; His (N)
T2 sequence (Q13574 whole entry): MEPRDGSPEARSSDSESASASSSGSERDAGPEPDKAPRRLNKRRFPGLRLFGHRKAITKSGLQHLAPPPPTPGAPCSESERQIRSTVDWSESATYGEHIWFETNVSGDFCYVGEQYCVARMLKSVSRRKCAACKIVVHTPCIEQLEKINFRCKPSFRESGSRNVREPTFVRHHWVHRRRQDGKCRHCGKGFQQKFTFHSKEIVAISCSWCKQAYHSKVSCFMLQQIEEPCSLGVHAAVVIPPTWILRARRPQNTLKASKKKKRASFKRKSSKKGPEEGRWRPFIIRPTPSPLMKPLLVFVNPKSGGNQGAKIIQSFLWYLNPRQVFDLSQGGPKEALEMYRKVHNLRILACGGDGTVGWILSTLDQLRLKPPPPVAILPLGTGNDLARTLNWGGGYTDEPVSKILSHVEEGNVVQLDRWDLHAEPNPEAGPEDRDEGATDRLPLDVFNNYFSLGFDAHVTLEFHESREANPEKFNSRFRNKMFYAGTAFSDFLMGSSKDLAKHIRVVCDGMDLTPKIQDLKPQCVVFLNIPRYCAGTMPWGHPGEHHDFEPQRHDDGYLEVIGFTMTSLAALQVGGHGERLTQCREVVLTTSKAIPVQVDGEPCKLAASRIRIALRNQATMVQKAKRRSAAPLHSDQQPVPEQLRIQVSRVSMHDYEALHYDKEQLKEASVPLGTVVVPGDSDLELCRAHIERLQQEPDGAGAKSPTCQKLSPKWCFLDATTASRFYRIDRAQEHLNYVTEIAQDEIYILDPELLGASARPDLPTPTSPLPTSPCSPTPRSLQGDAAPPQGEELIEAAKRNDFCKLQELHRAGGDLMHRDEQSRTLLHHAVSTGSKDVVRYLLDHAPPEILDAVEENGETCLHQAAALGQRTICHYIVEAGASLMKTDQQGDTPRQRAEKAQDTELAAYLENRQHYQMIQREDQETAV
Procedure: as §1, §2, §3, §4

DGK α kinase = DGK α kinase (Homo sapiens, UniProt P23743); assay: In vitro DGK inhibition assay (ADP Glo) run by Reaction Biology Corp., DGK alpha; format: biochemical; conditions: isomer A, 2 nM kinase, 50 μM ATP, 500 uM DLG, 10-dose, 3-fold dilution starting at 1 μM, read-out: DGKalpha IC50
DGK α kinase, sequence (P23743 whole entry): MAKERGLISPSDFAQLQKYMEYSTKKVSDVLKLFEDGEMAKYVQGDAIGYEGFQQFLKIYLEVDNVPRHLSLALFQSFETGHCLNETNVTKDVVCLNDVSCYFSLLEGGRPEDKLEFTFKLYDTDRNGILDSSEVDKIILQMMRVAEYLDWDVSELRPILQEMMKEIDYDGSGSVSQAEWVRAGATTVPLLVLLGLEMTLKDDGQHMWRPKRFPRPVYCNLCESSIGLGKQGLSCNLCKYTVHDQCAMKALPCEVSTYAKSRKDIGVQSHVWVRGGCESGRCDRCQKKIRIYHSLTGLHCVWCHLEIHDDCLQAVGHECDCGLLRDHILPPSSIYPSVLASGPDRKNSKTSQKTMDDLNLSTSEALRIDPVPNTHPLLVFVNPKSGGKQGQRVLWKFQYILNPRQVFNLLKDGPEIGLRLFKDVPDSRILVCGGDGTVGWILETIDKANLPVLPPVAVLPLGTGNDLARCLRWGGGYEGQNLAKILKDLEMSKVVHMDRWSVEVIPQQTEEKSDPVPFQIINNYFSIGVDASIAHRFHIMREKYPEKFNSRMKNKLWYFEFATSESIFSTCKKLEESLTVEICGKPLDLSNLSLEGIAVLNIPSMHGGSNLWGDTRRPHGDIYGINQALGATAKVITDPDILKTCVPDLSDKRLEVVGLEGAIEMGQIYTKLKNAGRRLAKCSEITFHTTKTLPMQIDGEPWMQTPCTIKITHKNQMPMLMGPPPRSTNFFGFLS
Procedure: DGK α and ζ kinase use ATP to phosphorylate the substrate 1,2-dilauroyl-sn-glycerol (DLG). ATP is converted to ADP as a result of this enzymatic reaction.
as §2
DGK α and ζ kinase ADP Glo assays were ran by Reaction Biology Corp., 1 Great Valley Parkway, Suite 2, Malverm, 19355, PA, USA. Information provided by the service provider are the following: DGK α and ζ kinases were used at 2 nM final concentration. Reactions were carried out at 50 μM ATP. 500 uM of the substrate DLG (Dilauroyl-sn-glycerol) was used. Compounds were received at 10 mM DMSO stock solution and were tested in 10-dose IC50 duplicate with 3-fold serial dilution starting at 1 μM. A control compound, Calphostin C, was tested in 10-dose IC50 with 3-fold serial dilution starting at 100 μM.

MV-3 RFP cells = assay: T-cell TCB MV3 killing assay; format: cell-based, human; conditions: isomer A; for Emax: Homo sapiens, MV-3, 120 h, 20 μM reference compound A1 = 100%, MCSP-TCB only neutral control, read-out: MSCP TCB killing MV-3 cells 5 d Emax (%)
Procedure: All culturing steps are executed at 5% CO2, 37° C. and 95% humidity.
MV-3 RFP cells are cultured in MV-3 medium (DMEM+10% FBS, 1× PenStrep and 0.5 μg/mL Puromycin) for at least 3 weeks. Cultured MV-3 cells at 80% confluency are washed once with PBS−− and trypsinized until detached. Cells are then counted and resuspended to 1*10^5 cells/mL in T-cell medium (RPMI 1640+5% human serum+1 mM Sodium Pyruvate+50 μM 2-mercaptoethanol and 1× Pen-Strep). Cells are seeded with 100 μL/well into a 96-well plate (TTP, #92696), and placed for 40 minutes without moving at room temperature in order to achieve evenly distributed attachment of cells. Plates are then incubated until further use.
On the next day, expanded primary human T-cells are thawed and resuspended in T-cell medium to 4*10^6 cells/mL. For 3 hours, they are cultured in a 6-well plate with 6 mL per well at maximum. After culturing the T-cells, they are filtered through a cell strainer (Miltenyi Biotech, #130-041-407), counted again, and cell concentration is adjusted to 2*10^6 cells/mL.
MCSP-TCB or PBS are pre-diluted in T-cell medium (concentration depending on T-cell donor), 4 times more concentrated than the end-concentration. 60 μL/well of pre-dilutions are then distributed into a round bottom plate (Costar, #3799) according to plate layout. Compounds are added in a 9 pt dose response with the Tecan D300e Digital Dispenser, as well 4 times more concentrated than the end-concentration. DMSO concentration of all wells is adjusted to 0.8%, resulting in 0.2% as final concentration.
60 μL per well of T-cell suspension are added to the prepared round bottom plate and resuspended with a manual multichannel. 100 μL/well of the resuspended T-cell suspension including treatments are then transferred cautiously to the over-night cultured MV-3 cells according to plate layout. 100 μL T-cell medium only is added to the outer MV-3 wells only. Final compound DR is starting at 20 μM with a dilution factor of 3.333. Final TCB concentration is between […] and was determined for each T-cell donor individually by running TCB titrations. For each donor, a TCB concentration was chosen which corresponds to 10-20% of MV3 baseline cell killing in the absence of compound treatment. Positive control is the reference compound A1 which is added in a DR, as well as additional wells with only 20 μM. 20 μM of reference compound A1 represent the positive stimulator control, TCB only (DMSO wells) the neutral control.
After transfer of T-cells with treatment pre-dilutions, MV-3 cells are imaged by time-lapse microscopy using IncucyteZOOM™ (Essen BioScience, MI, USA). Imaging is performed every 3 hours for a total of 120 hours (10× objective, phase and red image channels, acquisition time 400 ms, Green/Red 4614 optical module). RFP object count per well is analysed in the IncucyteZOOM™ Software (Version 2019B Rev2) with a mask that was previously created and optimized for MV-3 cells. Raw data is exported as object count/well and values are normalized as % TCL compared to wells with MV-3 only, representing 100% growth and therefore 0% TCL.
Calculated 00 TCL values are analysed in Genedata Screener using Roche Normalization PCT_POS_CTRL with MCSP-TCB only set as Neutral Control and 20 μM of the reference compound A1 set as Stimulator Control/100%.
Induced TCL by compounds without TCB treatment or toxicity (observed in the PBS condition) were be flagged.

T1 sequence (P23743 whole entry): as above

Compound | IC50 [1] [µM] | IC50 [2] [µM] | IC50 (DGK α kinase) [µM] | Emax (MV-3 RFP cells) [%] | EC50 (MV-3 RFP cells; primary human T-cells + MCSP-TCB on MV-3 RFP cells, imaging over 120 hours, read-out: MSCP TCB killing MV-3 cells 5 d EC50) [µM]
N[C@@H]1CC(F)(F)c2cc(F)c(-c3nnc(N4CCCC4)o3)cc2N(Cc2ccc(-c3noc(C(F)(F)F)n3)cc2)C1=O (single isomer, unassigned) [Example 14] | > 62.5 | 17.9 | – | 113 | –
N[C@@H]1CC(F)(F)c2cc(F)c(-c3nnc(N4CCOC5(CC5)C4)o3)cc2N(Cc2ccc(-c3noc(C(F)(F)F)n3)cc2)C1=O (single isomer, unassigned) [Example 17] | > 62.5 | 3.25 | – | 105 | –
COC(=O)N1CC2CC(c3nnc(-c4cc5c(cc4F)C(F)(F)C[C@@H](N)C(=O)N5Cc4ccc(Cl)cc4)o3)(C2)C1 (single isomer, unassigned) [Example 36] | 55.2 | 5.92 | – | – | –
COc1ccc(-c2ccc(CN3C(=O)[C@H](N)CC(F)(F)c4cc(F)c(-c5nnc(C(C)(C)C#N)o5)cc43)cc2)nc1 (single isomer, unassigned) [Example 38] | ≥ 60 | 5.8 | – | – | –
COc1ccc(-c2ccc(CN3C(=O)[C@H](N)CC(F)(F)c4cc(F)c(-c5nnc(C(C)(C)S(C)(=O)=O)o5)cc43)cc2)nc1 (single isomer, unassigned) [Example 39] | 44.4 | 38.8 | – | – | –
COC(=O)N1CC2CC(c3nnc(-c4cc5c(cc4F)C(F)(F)CC(N)C(=O)N5Cc4ccc(-c5noc(C(F)(F)F)n5)cc4)o3)(C2)C1 (single isomer, unassigned) [Example 42] | 4.32 | 2.22 | – | – | –
(3S)-3-amino-5,5,7-trifluoro-8-(5-morpholino-1,3,4-oxadiazol-2-yl)-1-[[4-(trifluoromethoxy)phenyl]methyl]-3,4-dihydro-1-benzazepin-2-one and (3R)-3-amino-5,5,7-trifluoro-8-(5-morpholino-1,3,4-oxadiazol-2-yl)-1-[[4-(trifluoromethoxy)phenyl]methyl]-3,4-dihydro-1-benzazepin-2-one [Example 3] | 1.57 | 2.89 | – | – | –

More lines, in order of falling IC50 [1], values ahead:

IC50 [1] [µM] | IC50 [2] [µM] | IC50 (DGK α kinase) [µM] | Compound | Emax (MV-3 RFP cells) [%] | EC50 (MV-3 RFP cells; primary human T-cells + MCSP-TCB on MV-3 RFP cells, imaging over 120 hours, read-out: MSCP TCB killing MV-3 cells 5 d EC50) [µM]
33.9 | 19.9 | – | CC(C)(C)c1nnc(-c2cc3c(cc2F)C(F)(F)CC(N)C(=O)N3Cc2ccc(OC(F)(F)F)cc2)o1 (stereo not drawn) [Example 1, 3-amino-8-(5-tert-butyl-1,3,4-oxadiazol-2-yl)-5,5,7-trifluoro-1-[[4-(trifluoromethoxy)phenyl]methyl]-3,4-dihydro-1-benzazepin-2-one] | – | –
24 | 8.22 | – | CC(C)(C#N)c1nnc(-c2cc3c(cc2F)C(F)(F)C[C@@H](N)C(=O)N3Cc2ccc(-c3ccc(OC(F)F)cn3)cc2)o1 (single isomer, unassigned) [Example 41] | 98 | –
16.2 | 11.5 | 0.0931 | COc1ccc(-c2ccc(CN3C(=O)[C@H](N)CC(F)(F)c4cc(F)c(-c5nnc(C(C)(C)S(C)(=O)=O)o5)cc43)cc2)cc1 (single isomer, unassigned) [Example 10] | – | –
15.3 | 2.5 | – | CC(C)(C#N)c1nnc(-c2cc3c(cc2F)C(F)(F)C[C@@H](N)C(=O)N3Cc2ccc(-c3ccc(C(F)F)cn3)cc2)o1 (single isomer, unassigned) [Example 40] | – | –
13.2 | 14.9 | – | CC(C)(c1nnc(-c2cc3c(cc2F)C(F)(F)C[C@@H](N)C(=O)N3Cc2ccc(-c3noc(C(F)(F)F)n3)cc2)o1)S(C)(=O)=O (single isomer, unassigned) [Example 16] | 84 | –
11.2 | 2.85 | 0.0462 | CC(F)(F)c1ccc(-c2ccc(CN3C(=O)[C@H](N)CC(F)(F)c4cc(F)c(-c5nnc(C(C)(C)C#N)o5)cc43)cc2)nc1 (single isomer, unassigned) [Example 37] | – | –
9.64 | 1.73 | 0.0703 | CC(C)(C)c1nnc(-c2cc3c(cc2F)C(F)(F)C[C@@H](N)C(=O)N3Cc2ccc(OC3CCCC3)cc2)o1 (single isomer, unassigned) [Example 7] | – | –
5.44 | 16.1 | – | CC(C)(c1nnc(-c2cc3c(cc2F)C(F)(F)C[C@@H](N)C(=O)N3Cc2ccc(-c3ccc(C(F)(F)F)cn3)cc2)o1)S(C)(=O)=O (single isomer, unassigned) [Example 8] | 100 | –
4.37 | 8.93 | – | COC(F)(c1nnc(-c2cc3c(cc2F)C(F)(F)C[C@H](N)C(=O)N3Cc2ccc(OC(F)(F)F)cc2)o1)C(F)(F)F (single isomer, unassigned) [Example 4] | 94 | 0.069
2.37 | 1.68 | 0.0082 | CC(C)(C#N)c1nnc(-c2cc3c(cc2F)C(F)(F)CC(N)C(=O)N3Cc2ccc(-n3cc(C(F)(F)F)cn3)cc2)o1 (racemic) [Example 33, 2-[5-[(3S)-3-amino-5,5,7-trifluoro-2-oxo-1-[[4-[4-(trifluoromethyl)pyrazol-1-yl]phenyl]methyl]-3,4-dihydro-1-benzazepin-8-yl]-1,3,4-oxadiazol-2-yl]-2-methyl-propanenitrile and 2-[5-[(3R)-3-amino-5,5,7-trifluoro-2-oxo-1-[[4-[4-(trifluoromethyl)pyrazol-1-yl]phenyl]methyl]-3,4-dihydro-1-benzazepin-8-yl]-1,3,4-oxadiazol-2-yl]-2-methyl-propanenitrile] | – | –
